Source: ChEMBL document CHEMBL3611982, “Lowering the pKa of a bisimidazoline lead with halogen atoms results in improved activity and selectivity against Trypanosoma brucei in vitro” (Eur J Med Chem, 2015)
Activity calls are given as the source filed them. The calls are words filed in the database; no cut-off is given here.

Assays:
[1] = tested on: Trypanosoma brucei brucei; assay: Trypanocidal activity against wild type bloodstream form of Trypanosoma brucei brucei s427 trypomastigotes after 70 hrs by Alamar Blue assay; assay type: functional, organism-based; settings: s427, 70 h
[2] = tested on: Trypanosoma brucei brucei; assay: Trypanocidal activity against diminazene/pentamidine/melaminophenyl arsenicals-resistant bloodstream form of Trypanosoma brucei brucei B48 trypomastigotes after 70 hrs by Alamar Blue assay; assay type: functional, organism-based; settings: B48, 70 h
[3] = tested on: Trypanosoma brucei brucei; assay: Resistant factor, ratio of EC50 for diminazene/pentamidine/melaminophenyl arsenicals-resistant Trypanosoma brucei brucei B48 to EC50 for wild type bloodstream form of Trypanosoma brucei brucei s427 trypomastigotes; assay type: functional
[4] = Cytotoxicity against HEK293T cells after 30 hrs by Alamar Blue assay; assay type: cell-based, HEK-293T; settings: human
[5] = Selectivity index, ratio of CC50 for HEK293T cells to EC50 for wild type bloodstream form of Trypanosoma brucei s427 trypomastigotes; assay type: toxicity, cell-based, HEK-293T; settings: human, read-out: Ratio CC50/EC50
[6] = tested on: Trypanosoma brucei brucei; assay: Trypanocidal activity against Trypanosoma brucei brucei s427 at >5 fold EC50 measured within 6 hrs by propidium iodide staining-based fluorimetric analysis; assay type: functional, organism-based
[7] = tested on: Trypanosoma brucei brucei; assay: Trypanocidal activity against Trypanosoma brucei brucei s427 measured within 6 hrs by propidium iodide staining-based fluorimetric analysis; assay type: functional, organism-based
[8] = tested on: Trypanosoma brucei brucei; assay: Trypanocidal activity against Trypanosoma brucei brucei s427 at 5 uM measured over 1 hr by propidium iodide staining-based fluorimetric analysis; assay type: functional, organism-based
[9] = tested on: Trypanosoma brucei brucei; assay: Trypanocidal activity against Trypanosoma brucei brucei s427 at 2.5 uM measured over 2 hrs by propidium iodide staining-based fluorimetric analysis; assay type: functional, organism-based

O=C(Nc1ccc(NC2=NCCN2)cc1)c1ccc(NC2=NCCN2)cc1
EC50 [1]: 830 nM
EC50 [2]: 870 nM
Ratio EC50 [3]: 1.1
CC50 at 30 h [4]: > 200000 nM
selectivity ratio [5]: > 240
Activity [6]: Active
Activity [7]: Dose-dependent effect

O=C(Nc1ccc(N=C2NCCN2)c(F)c1)c1ccc(N=C2NCCN2)cc1
EC50 [1]: 580 nM
EC50 [2]: 790 nM
Ratio EC50 [3]: 1.4
CC50 at 30 h [4]: > 200000 nM
selectivity ratio [5]: > 340

O=C(Nc1ccc(N=C2NCCN2)cc1F)c1ccc(N=C2NCCN2)cc1
EC50 [1]: 1580 nM
EC50 [2]: 2160 nM
Ratio EC50 [3]: 1.4
CC50 at 30 h [4]: > 200000 nM
selectivity ratio [5]: > 120

O=C(Nc1ccc(N=C2NCCN2)c(Cl)c1)c1ccc(N=C2NCCN2)cc1
EC50 [1]: 220 nM
EC50 [2]: 360 nM
Ratio EC50 [3]: 1.7
CC50 at 30 h [4]: > 200000 nM
selectivity ratio [5]: > 900
Activity [8]: Active

O=C(Nc1ccc(N=C2NCCN2)cc1)c1ccc(N=C2NCCN2)cc1F
EC50 [1]: 470 nM
EC50 [2]: 650 nM
Ratio EC50 [3]: 1.4
CC50 at 30 h [4]: > 200000 nM
selectivity ratio [5]: > 420
Activity [8]: Active
Activity [9]: Active

O=C(Nc1ccc(N=C2NCCN2)cn1)c1ccc(N=C2NCCN2)cc1
EC50 [1]: 1040 nM
EC50 [2]: 3230 nM
Ratio EC50 [3]: 3.1
CC50 at 30 h [4]: > 200000 nM
selectivity ratio [5]: > 190

N=C(N)c1ccc(OCCCCCOc2ccc(C(=N)N)cc2)cc1 [PENTAMIDINE]
EC50 [1]: 0.11 nM
EC50 [2]: 550 nM
Ratio EC50 [3]: 3349

N=C(N)c1ccc(/N=N/Nc2ccc(C(=N)N)cc2)cc1 [DIMINAZENE]
EC50 [1]: 12 nM
EC50 [2]: 780 nM
Ratio EC50 [3]: 42

O=C(Nc1ccc(N=C2NCCN2)cc1)c1ccc(N=C2NCCN2)c(F)c1
EC50 [1]: 530 nM
EC50 [2]: 690 nM
Ratio EC50 [3]: 1.3
CC50 at 30 h [4]: > 200000 nM
selectivity ratio [5]: > 370

O=C(Nc1ccc(N=C2NCCN2)cc1Cl)c1ccc(N=C2NCCN2)cc1
EC50 [1]: 4220 nM
EC50 [2]: 4350 nM
Ratio EC50 [3]: 1
CC50 at 30 h [4]: > 200000 nM
selectivity ratio [5]: > 45

O=C(Nc1ccc(N=C2NCCN2)cc1)c1ccc(N=C2NCCN2)cc1Cl
EC50 [1]: 1320 nM
EC50 [2]: 2440 nM
Ratio EC50 [3]: 1.8
CC50 at 30 h [4]: > 200000 nM
selectivity ratio [5]: > 150

O=C(Nc1ccc(N=C2NCCN2)cc1)c1ccc(N=C2NCCN2)c(Cl)c1
EC50 [1]: 970 nM
EC50 [2]: 830 nM
Ratio EC50 [3]: 0.9
CC50 at 30 h [4]: > 200000 nM
selectivity ratio [5]: > 200
